Measurements taken from paper PMC10254531, “The Effects of 1-O-Acetylbritannilactone Isolated from Inula britannica Flowers on Human Neutrophil Elastase and Inflammation of RAW 264.7 Cells and Zebrafish Larvae” (Molecules, 2023).

Experiments:
[1] = biological target: T1, human neutrophil elastase (HNE) (Homo sapiens, UniProt P08246); experiment: chromogenic enzyme assay with MeO-Suc-AAPV-pNA; Lineweaver-Burk and Dixon plots; format: biochemical
T1 construct: gene ELANE
T1 sequence (P08246 30-247): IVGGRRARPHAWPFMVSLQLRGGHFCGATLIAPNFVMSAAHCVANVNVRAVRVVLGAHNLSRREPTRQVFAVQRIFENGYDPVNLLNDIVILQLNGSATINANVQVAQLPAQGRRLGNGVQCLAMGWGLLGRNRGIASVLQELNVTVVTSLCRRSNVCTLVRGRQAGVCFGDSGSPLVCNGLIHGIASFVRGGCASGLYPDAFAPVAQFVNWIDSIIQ

[2] = biological target: T1, human neutrophil elastase (HNE); experiment: chromogenic enzyme assay with MeO-Suc-AAPV-pNA (positive control); format: biochemical

Row | Ki [1] | Structure (SMILES) | IC50 [2]
1 | 2.4 µM | C=C1C(=O)O[C@@H]2CC(C)=C([C@@H](C)CCCOC(C)=O)[C@@H](O)[C@H]12 [ABL, 1-O-acetylbritannilactone] | –
2 | – | O=C(O[C@@H]1Cc2c(O)cc(O)cc2O[C@@H]1c1cc(O)c(O)c(O)c1)c1cc(O)c(O)c(O)c1 [epigallocatechin gallate] | 7.2 ± 0.5 µM
